Results taken from patent US12582660B2, “Inhibitors of the RAS oncoprotein, methods of making and methods of use thereof” (University of Louisville Research Foundation, Inc., priority 2018, dated 2026).
pKd: −log10 of the molar value. “Also recorded” adds a separate entry of the source. Each block holds one compound with its values, some of them ahead of it.

Assays:
[1] = target: recombinant K-RAS12v protein (Homo sapiens, UniProt P01116, G12V); experiment: Thermofluor direct binding assay; conditions: for Thermofluor curve shift (direct binding): 200 uM compound/5 uM protein, K-RAS12v loaded with gamma GTPS
Chain of recombinant K-RAS12v protein (P01116 1-185 isoform P01116-2 G12V): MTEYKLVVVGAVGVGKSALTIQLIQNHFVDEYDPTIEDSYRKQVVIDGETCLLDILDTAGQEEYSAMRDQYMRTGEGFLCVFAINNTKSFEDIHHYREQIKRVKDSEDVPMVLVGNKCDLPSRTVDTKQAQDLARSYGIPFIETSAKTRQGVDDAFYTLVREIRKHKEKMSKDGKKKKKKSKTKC
Description: Direct binding of F3/F3a derivative to recombinant K-RAS protein. Thermofluor assays were performed to assay whether direct interactions could be detected between recombinant K-RAS protein and compound F3, or recombinant K-RAS protein and compound JAB-6-5. Recombinant K-RAS12v protein was loaded with gamma GTPS and used in binding assays with a ratio of: 200 uM compound/5 uM protein. Control compound C4 is targeted at a different protein and was not expected to bind RAS. The results are the derivative of three assays performed in triplicate. […] A predicted kD can be extrapolated from the curve: ˜25 uM at 55.5° C.

[2] = Normal 2-D growth (cell line not stated); format: cell-based
Description: (§1) The compounds synthesized were tested in the 3-D soft agar drug screening, including F3, JAB-6-176 and JAB-8-60. All the compounds tested suppressed 3-D soft agar growth, but had little effect on normal 2-D growth. […] In Table 2, below, are listed different cell lines, with the results of testing F3 in the “REMARKS” column. All the cell lines are common and publicly available from the ATCC repository (www.atcc.org/en/Products/Cells_and_Microorganisms/Cell_Lines.aspx). NF1 mute are cells with defects in the NF1 gene (a negative regulator of RAS) causing hyper-activation of the wild type form of RAS. The same is true for DAB2IP deficient cells. EGFR+++ cells overexpress the EGFR receptor, which also results in the hyper-activation of wild type RAS,

tumor cells = experiment: 3-D soft agar drug screening (cell line not stated); format: cell-based
Description: (§2) The technical process of 3-D culture involves preparing molten agar at 1.6% in culture medium and adding serum to 10%. 1 ml of this agar medium is plated per well in a 12 well plate and allowed to set. This is the bottom agar and prevents any cells added to the well from touching the plastic bottom of the plate, ensuring everything remains suspended. Meanwhile the remaining stock of agar medium is kept at 42° C. to prevent setting. Target cells are then trypsinized into a single cell suspension and mixed with normal medium/drug combination. ⅔ volume molten agar medium is then added and the mixture plated onto the bottom agar. The agar/medium sets as it cools, suspending the cells in a 3D environment. Typically, within 2 weeks, tumor spheres (colonies) will form suspended in the agar. The number of colonies, or even the size, may be counted under an inverted microscope and quantified to assay tumor sphere inhibition.
(§3) The compounds synthesized were tested in the 3-D soft agar drug screening, including F3, JAB-6-176 and JAB-8-60. All the compounds tested suppressed 3-D soft agar growth, but had little effect on normal 2-D growth. […] In Table 2, below, are listed different cell lines, with the results of testing F3 in the “REMARKS” column. All the cell lines are common and publicly available from the ATCC repository (www.atcc.org/en/Products/Cells_and_Microorganisms/Cell_Lines.aspx). […]

[3] = tested on: A549 K-RAS driven lung tumor cell line; experiment: Normal growth/survival in 2-D culture on plastic, A549; format: cell-based; conditions: 10 uM
Description: (§4) Effects of the small molecule on growth in soft agar of A549 K-RAS driven lung tumor cell line and K-RAS driven pancreatic cancer cell line MiaPaCa-2 is shown. 0=carrier (DMSO). P values are less than 0.05, FIG. 5 and FIG. 6 show the effects of 10 uM of F3 on normal growth/survival in 2-D culture on plastic of the same cells. […] FIG. 7 is a graph showing that F3 is also effective against wild-type driven tumor cells, while FIG. 8 is a graph showing normal growth/survival in 2-D culture on plastic of the same cells.

[4] = tested on: K-RAS driven pancreatic cancer cell line MiaPaCa-2; experiment: Normal growth/survival in 2-D culture on plastic, MiaPaCa-2; format: cell-based; conditions: 10 uM
Description: as §4

[5] = Preliminary in vivo toxicity assay; design: species or system NRG mice; conditions: i.p. 10 mg/kg every other day for 2 weeks
Description: A preliminary in vivo toxicity assay was performed on F3. NRG mice were i.p. injected with 10 mg/kg of drug every other day for 2 weeks.

[6] = tested on: Mia-Paca-2 (Pancreatic cancer) xenograft tumors; experiment: Tumor inhibition of xenografts, Mia-Paca-2; format: in vivo, NRG mice; conditions: Mia-Paca-2 xenograft; 12 mg/kg every three days; P value 0.014
Description: (§5) Compound F3 was tested in vivo, using cell line xenograft tumors in NRG mice. Cell lines used included Mia-Paca-2 (Pancreatic cancer), and NCI-H441 (Lung cancer). […] The results for Mia-Paca-2 are shown in FIG. 14 and FIG. 15 ([…] treated with DMSO/PBS (carrier) or F3 drug at 12 mg/kg every three days).

CaoV3 = experiment: 3-D soft agar drug screening, CaoV3; format: cell-based; conditions: CaoV3, NF1mute, ovarian
Description: as §2, §3

Panc-1 = experiment: 3-D soft agar drug screening, Panc-1; format: cell-based; conditions: Panc-1, K12D, pancreatic
Description: as §2, §3

A375 = experiment: 3-D soft agar drug screening, A375; format: cell-based; conditions: A375, B-RAF mute, melanoma; 2 uM
Description: as §2, §3

HL-60 = experiment: Suspension culture growth, HL-60; format: cell-based; conditions: HL-60, NRASQ61L, AML
Description: as §1

[7] = tested on: wild-type RAS driven tumor cells; experiment: Soft agar growth of wild-type RAS driven tumor cells; format: cell-based
Description: as §4

SK-RC-45 = experiment: 3-D soft agar drug screening, SK-RC-45; format: cell-based; conditions: SK-RC-45, EGFR++++, kidney
Description: as §2, §3

HTB-185 = experiment: 3-D soft agar drug screening, HTB-185; format: cell-based; conditions: HTB-185, DAB2IP deficient, Medulloblastoma
Description: as §2, §3

[8] = tested on: NCI-H441 (Lung cancer) xenograft tumors; experiment: Tumor inhibition of xenografts, NCI-H441; format: in vivo; conditions: NCI-H441 xenograft in NRG mice
Description: as §5

A549 = experiment: 3-D soft agar drug screening, A549; format: cell-based; conditions: A549, K12S, Lung
Description: as §2, §3

Mia-Paca-2 = experiment: 3-D soft agar drug screening, Mia-Paca-2; format: cell-based; conditions: Mia-Paca-2, K12C, Pancreatic
Description: as §2, §3

MDA-MB-231 = experiment: 3-D soft agar drug screening, MDA-MB-231; format: cell-based; conditions: MDA-MB-231, Kras13D and deficient for NF1, Breast; cells don't grow well in soft agar
Description: as §2, §3

S462.TY = experiment: 3-D soft agar drug screening, S462.TY; format: cell-based; conditions: NF1-mute, MPNST
Description: as §2, §3

Mia-Paca-2 cells = experiment: Anoikis assay on polyHEMA treated wells, trypan blue exclusion; format: cell-based; conditions: after 48 hours
Description: RAS activation leads to resistance to anoikis and inhibiting RAS function re-sensitizes […] cells to anoikis. The RAS/RalGDS pathway has been implicated as a significant component of RAS mediated anoikis suppression. […] After 48 hours the cultures were assayed for cell death by trypan blue exclusion.

H1299 = experiment: 3-D soft agar drug screening, H1299; format: cell-based; conditions: H1299, Hras61, Lung
Description: as §2, §3

Thermofluor curve shift (direct binding) [1]: significant curve shift
Structure (SMILES): Cc1ccc(NC(=O)CN(C)CC(=O)Nc2cccc(F)c2)cc1S(=O)(=O)N1CCCC1 [JAB-6-5]

Structure (SMILES): CCCc1ccc(NC(=O)CN(C)CC(=O)Nc2cccc(F)c2)cc1S(=O)(=O)N1CCCCCC1 [JAB-6-176]
normal 2-D growth [2]: little effect
3-D soft agar growth (tumor cells): suppressed

Thermofluor curve shift (direct binding) [1]: significant curve shift
pKd ([1]; at 55.5° C., read-out: predicted kD extrapolated from the curve): ~4.60
Structure (SMILES): Cc1ccc(NC(=O)CN(C)CC(=O)Nc2cccc(F)c2)cc1S(=O)(=O)N1CCCCCC1 [Compound F3, N-(3-(Azepan-1-ylsulfonyl)-4-methylphenyl)-2-((2-((3-fluorophenyl)amino)-2-oxoethyl)(methyl)amino)-acetamide]
cell growth in 2-D culture on plastic [3]: no effect
cell growth in 2-D culture on plastic [4]: no effect
signs of pain or distress [5]: No obvious signs of pain or distress
weight loss [5]: no weight loss
normal 2-D growth [2]: little effect
tumor volume as compared to controls [6]: approximately half the volume
Soft agar growth (CaoV3): Soft agar growth inhibited
Soft agar growth (Panc-1): Soft agar growth inhibited
Soft agar growth (A375): 10 uM, no effect at 2 uM
Growth in suspension (HL-60): inhibited
Effect against wild-type driven tumor cells [7]: effective
Soft agar growth (SK-RC-45): Soft agar growth inhibited
Soft agar growth (HTB-185): Soft agar growth inhibited
tumor volume as compared to controls [8]: reduction in tumor volume
Soft agar growth (A549): specific inhibition; also recorded: Soft agar growth inhibited
Soft agar growth (Mia-Paca-2): specific inhibition; also recorded: Soft agar growth inhibited
3-D soft agar growth (tumor cells): suppressed
Soft agar growth (MDA-MB-231): inhibited.
Soft agar growth (S462.TY): Soft agar growth inhibited
anoikis (cell death by trypan blue exclusion) (Mia-Paca-2 cells): induced high levels of anoikis
Soft agar growth (H1299): Soft agar growth inhibited
